Experimental data from patent publication US11739068B2, “Polymorphs of N-[(3-fluoro-4-methoxypyridin-2-yl)methyl]-3-(methoxymethyl)-1-({4-[(2-oxopyridin-1-yl)methyl]phenyl}methyl)pyrazole-4-carboxamide and salts thereof” (KALVISTA PHARMACEUTICALS LIMITED, priority 2016, dated 2023).
One block for each compound: values may come before it.

Key:
[1] = in vivo; cited from earlier work
[2] = Visual aqueous solubility; format: physicochemical; settings: water, thermodynamic from solid
Protocol: Form 1 (10 mg) was weighed into a glass vial and water was added in 100 μL portions up to 3 mL then 1 mL portions thereafter. Solubility was assessed visually following a brief period of equilibration.
Form 18 (10 mg) was weighed into a glass vial and water was added in 100 μL portions up to 3 mL then 1 mL portions thereafter. Solubility was assessed visually following a brief period of equilibration.
Form 8 (10 mg) was weighed into a glass vial and water was added in 100 μL portions up to 3 mL then 1 mL portions thereafter. Solubility was assessed visually following a brief period of equilibration.
Form 15 (10 mg) was weighed into a glass vial and water was added in 100 μL portions up to 3 mL then 1 mL portions thereafter. Solubility was assessed visually following a brief period of equilibration.
Form 16 (10 mg) was weighed into a glass vial and water was added in 100 μL portions up to 3 mL then 1 mL portions thereafter. Solubility was assessed visually following a brief period of equilibration.

Slurry studies = format: physicochemical; settings: 90/10 IPA/water, ambient temperature, 72 hrs
Protocol: Form 1 (20 mg) was suspended in 90/10 IPA/water (200 μL or […]) and shaken at ambient temperature for 72 hrs. The supernatant was evaporated rather than filtered due to the small volume and the resulting solid was examined by XRPD (FIG. 6).
The supernatant was evaporated rather than filtered due to the small volume and the resulting solid was examined by XRPD (FIG. 28).
The supernatant was evaporated rather than filtered due to the small volume and the resulting solid was examined by XRPD (FIG. 34).
The supernatant was evaporated rather than filtered due to the small volume and the resulting solid was examined by XRPD (FIG. 40).

[3] = Gravimetric Vapour Sorption (GVS); format: physicochemical
Protocol: Gravimetric Vapour Sorption (GVS) data were collected using the following method: Approximately 10 mg of sample was placed into a wire-mesh vapour sorption balance pan and loaded into an ‘IgaSorp’ vapour sorption balance (Hiden Analytical Instruments). The sample was then dried by maintaining a 0% humidity environment until no further weight change was recorded. Subsequently, the sample was then subjected to a ramping profile from 0-90% RH at 10% RH increments, maintaining the sample at each step until equilibration had been attained (99% step completion). Upon reaching equilibration, the % RH within the apparatus was ramped to the next step and the equilibration procedure repeated. After completion of the sorption cycle, the sample was then dried using the same procedure. The weight change during the sorption/desorption cycles were then monitored, allowing for the hygroscopic nature of the sample to be determined.

[4] = Stability study of Form 1 (double polyethylene bags, HDPE bottle); format: physicochemical; settings: for Change in the XRPD diffractogram on storage: after 1 month and 3 months
Protocol: Further evidence of the suitability of the crystalline forms of N-[(3-fluoro-4-methoxypyridin-2-yl)methyl]-3-(methoxymethyl)-1-({4-[(2-oxopyridin-1-yl)methyl]phenyl}methyl)pyrazole-4-carboxamide for pharmaceutical development is provided by the stability data disclosed herein. Two samples of Form 1 of N-[(3-fluoro-4-methoxypyridin-2-yl)methyl]-3-(methoxymethyl)-1-({4-[(2-oxopyridin-1-yl)methyl]phenyl}methyl)pyrazole-4-carboxamide were stored at 25° C./60% RH and 40° C./75% RH packed in double polyethylene bags and sealed in a HDPE bottle.
A sample of Form 1 was packed in double polyethylene bags and sealed in a HDPE bottle and stored at conditions of 25° C./60% RH. The sample was reanalysed after 1 month and 3 months by XRPD (using Method B). No change in the XRPD diffractogram was observed when the sample was stored at 25° C./60% RH after either 1 month or 3 months.
Further tests on the sample of Form 1 stored at 25° C./60% RH were carried out as described in the table below:
A second sample of Form 1 was packed in double polyethylene bags and sealed in a HDPE bottle and stored under accelerated stability conditions of 40° C./75% RH. The sample was reanalysed after 1 month and 3 months by XRPD (using Method B). No change in the XRPD diffractogram was observed when the sample was stored at 40° C./75% RH after either 1 month or 3 months.
Further tests on the sample of Form 1 stored at 40° C./75% RH were carried out as described in the table below: […]

Human KLK1 = biological target: T1, Human KLK1 (Homo sapiens, UniProt P06870); experiment: Determination of the IC50 for KLK1; format: biochemical; settings: 25° C., fluorogenic substrate H-DVal-Leu-Arg-AFC
T1 construct: purchased Callbiochem
T1 sequence (P06870 25-262): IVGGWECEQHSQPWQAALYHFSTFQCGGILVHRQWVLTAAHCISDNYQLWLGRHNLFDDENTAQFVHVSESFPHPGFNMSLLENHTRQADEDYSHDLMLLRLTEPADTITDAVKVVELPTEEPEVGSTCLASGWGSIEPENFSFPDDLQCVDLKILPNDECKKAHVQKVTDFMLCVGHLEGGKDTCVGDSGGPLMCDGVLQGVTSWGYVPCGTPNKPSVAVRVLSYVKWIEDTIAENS
Protocol: KLK1 inhibitory activity in vitro was determined using standard published methods (see e.g. Johansen et al., Int. J. Tiss. Reac. 1986, 8, 185; Shori et al., Biochem. Pharmacol., 1992, 43, 1209; Sturzebecher et al., Biol. Chem. Hoppe-Seyler, 1992, 373, 1025). Human KLK1 (Callbiochem) was incubated at 25° C. with the fluorogenic substrate H-DVal-Leu-Arg-AFC and various concentrations of the test compound. Residual enzyme activity (initial rate of reaction) was determined by measuring the change in […] at 410 nm and the IC50 value for the test compound was determined.

[5] = system: LPS-induced disseminated intravascular coagulation; settings: cited from earlier work
blood = blood contacted with inhibitor; cited from earlier work
[6] = system: intrinsic pathway of coagulation; settings: in vitro; cited from earlier work
[7] = in vivo; cited from earlier work; remark: listed apart in the source

Compound: C=Cc1cc(C(=O)Nc2ccc(C(=N)N)cc2)c(-c2ccc(C(=O)NCC3CC3)nc2C(=O)O)cc1OC [BCX4161]
Oral availability [1]: orally available

solubility [2]: < 500 µg/mL
XRPD of solid after slurry versus starting form (Slurry studies): different to that of FIG. 2a
%-Wt (dry basis) ([3]; adsorption, about 0 %-RH): 0.04722%
%-Wt (dry basis) ([3]; adsorption, about 10 %-RH): 0.23%
%-Wt (dry basis) ([3]; adsorption, about 20 %-RH): 0.3541%
%-Wt (dry basis) ([3]; adsorption, about 30 %-RH): 0.7126%
%-Wt (dry basis) ([3]; adsorption, about 40 %-RH): 0.825%
%-Wt (dry basis) ([3]; adsorption, about 50 %-RH): 1.207%
%-Wt (dry basis) ([3]; adsorption, about 60 %-RH): 1.699%
%-Wt (dry basis) ([3]; adsorption, about 70 %-RH): 1.912%
%-Wt (dry basis) ([3]; adsorption, about 80 %-RH): 2.186%
%-Wt (dry basis) ([3]; adsorption, about 90 %-RH): 3.226%
%-Wt (dry basis) ([3]; desorption, about 0 %-RH): 0.000368%
%-Wt (dry basis) ([3]; desorption, about 5 %-RH): 0.1269%
%-Wt (dry basis) ([3]; desorption, about 15 %-RH): 0.5017%
%-Wt (dry basis) ([3]; desorption, about 25 %-RH): 0.7008%
%-Wt (dry basis) ([3]; desorption, about 35 %-RH): 1.017%
%-Wt (dry basis) ([3]; desorption, about 45 %-RH): 1.525%
%-Wt (dry basis) ([3]; desorption, about 55 %-RH): 1.685%
%-Wt (dry basis) ([3]; desorption, about 65 %-RH): 1.865%
%-Wt (dry basis) ([3]; desorption, about 75 %-RH): 2.116%
%-Wt (dry basis) ([3]; desorption, about 85 %-RH): 2.547%
Appearance ([4]; 25° C./60% RH, 1 month): Off-white
Assay by HPLC (on an anhydrous and solvent free basis) ([4]; 25° C./60% RH, 1 month): 99.5 % w/w
DSC Tonset ([4]; 25° C./60% RH, 1 month): 151.1 °C
DSC Tpeak ([4]; 25° C./60% RH, 1 month): 152.4 °C
HPLC assay (on an “as is” basis) ([4]; 25° C./60% RH, 1 month): 99.4 % w/w
Polymorph by XRPD ([4]; 25° C./60% RH, 1 month): Conforms to
Purity by HPLC ([4]; 25° C./60% RH, 1 month): 99.62 area %
Total impurities ([4]; 25° C./60% RH, 1 month): 0.38 area %
Water by Karl Fischer analysis ([4]; 25° C./60% RH, 1 month): <0.1 % w/w
Appearance ([4]; 25° C./60% RH, 3 months): Off-white
Assay by HPLC (on an anhydrous and solvent free basis) ([4]; 25° C./60% RH, 3 months): 99.6 % w/w
DSC Tonset ([4]; 25° C./60% RH, 3 months): 150.8 °C
DSC Tpeak ([4]; 25° C./60% RH, 3 months): 152.2 °C
HPLC assay (on an “as is” basis) ([4]; 25° C./60% RH, 3 months): 99.5 % w/w
Polymorph by XRPD ([4]; 25° C./60% RH, 3 months): Conforms to
Purity by HPLC ([4]; 25° C./60% RH, 3 months): 99.70 area %
Total impurities ([4]; 25° C./60% RH, 3 months): 0.30 area %
Water by Karl Fischer analysis ([4]; 25° C./60% RH, 3 months): <0.1 % w/w
Appearance ([4]; 25° C./60% RH, Initial): Off-white
Assay by HPLC (on an anhydrous and solvent free basis) ([4]; 25° C./60% RH, Initial): 101.0 % w/w
DSC Tonset ([4]; 25° C./60% RH, Initial): 151.3 °C
DSC Tpeak ([4]; 25° C./60% RH, Initial): 152.9 °C
HPLC assay (on an “as is” basis) ([4]; 25° C./60% RH, Initial): 100.9 % w/w
Polymorph by XRPD ([4]; 25° C./60% RH, Initial): Conforms to
Purity by HPLC ([4]; 25° C./60% RH, Initial): 99.70 area %
Total impurities ([4]; 25° C./60% RH, Initial): 0.30 area %
Water by Karl Fischer analysis ([4]; 25° C./60% RH, Initial): <0.1 % w/w
Change in the XRPD diffractogram on storage ([4]; 25° C./60% RH): no change
Appearance ([4]; 40° C./75% RH, 1 month): Off-white
Assay by HPLC (on an anhydrous and solvent free basis) ([4]; 40° C./75% RH, 1 month): 99.5 % w/w
DSC Tonset ([4]; 40° C./75% RH, 1 month): 151.1 °C
DSC Tpeak ([4]; 40° C./75% RH, 1 month): 152.3 °C
HPLC assay (on an “as is” basis) ([4]; 40° C./75% RH, 1 month): 99.4 % w/w
Polymorph by XRPD ([4]; 40° C./75% RH, 1 month): Conforms to
Purity by HPLC ([4]; 40° C./75% RH, 1 month): 99.57 area %
Total impurities ([4]; 40° C./75% RH, 1 month): 0.43 area %
Water by Karl Fischer analysis ([4]; 40° C./75% RH, 1 month): <0.1 % w/w
Appearance ([4]; 40° C./75% RH, 3 months): Off-white
Assay by HPLC (on an anhydrous and solvent free basis) ([4]; 40° C./75% RH, 3 months): 100.0 % w/w
DSC Tonset ([4]; 40° C./75% RH, 3 months): 150.6 °C
DSC Tpeak ([4]; 40° C./75% RH, 3 months): 152.5 °C
HPLC assay (on an “as is” basis) ([4]; 40° C./75% RH, 3 months): 99.9 % w/w
Polymorph by XRPD ([4]; 40° C./75% RH, 3 months): Conforms to
Purity by HPLC ([4]; 40° C./75% RH, 3 months): 99.71 area %
Total impurities ([4]; 40° C./75% RH, 3 months): 0.29 area %
Water by Karl Fischer analysis ([4]; 40° C./75% RH, 3 months): 0.1 % w/w
Appearance ([4]; 40° C./75% RH, Initial): Off-white
Assay by HPLC (on an anhydrous and solvent free basis) ([4]; 40° C./75% RH, Initial): 101.0 % w/w
DSC Tonset ([4]; 40° C./75% RH, Initial): 151.3 °C
DSC Tpeak ([4]; 40° C./75% RH, Initial): 152.9 °C
HPLC assay (on an “as is” basis) ([4]; 40° C./75% RH, Initial): 100.9 % w/w
Polymorph by XRPD ([4]; 40° C./75% RH, Initial): Conforms to
Purity by HPLC ([4]; 40° C./75% RH, Initial): 99.70 area %
Total impurities ([4]; 40° C./75% RH, Initial): 0.30 area %
Water by Karl Fischer analysis ([4]; 40° C./75% RH, Initial): <0.1 % w/w
Change in the XRPD diffractogram on storage ([4]; 40° C./75% RH): no change
Compound: COCc1nn(Cc2ccc(Cn3ccccc3=O)cc2)cc1C(=O)NCc1nccc(OC)c1F [Form 1, N-[(3-fluoro-4-methoxypyridin-2-yl)methyl]-3-(methoxymethyl)-1-({4-[(2-oxopyridin-1-yl)methyl]phenyl}methyl)pyrazole-4-carboxamide]
Increase in water content by GVS (hygroscopicity, in words) ([3]; up to 70% relative humidity): only a relatively gradual increase in water content

IC50 (Human KLK1): > 40 µM
Compound: COCc1nn(Cc2ccc(Cn3ccccc3=O)cc2)cc1C(=O)NCc1nccc(OC)c1F [N-[(3-fluoro-4-methoxypyridin-2-yl)methyl]-3-(methoxymethyl)-1-({4-[(2-oxopyridin-1-yl)methyl]phenyl}methyl)pyrazole-4-carboxamide]

Compound: Cl.NCC1CCC(C(=O)N[C@@H](Cc2ccccc2)C(=O)Nc2ccc(CC(=O)O)cc2)CC1 (stereo partly shown) [PKSI-527]
Effect on platelet count, fibrinogen level and FDP level [5]: significantly suppressed the decrease in platelet count and fibrinogen level as well as the increase in FDP level

Compound: Ecallantide
Activated clotting time (ACT) (blood): increase in activated clotting time (ACT)
Contact activated induced coagulation [6]: delay contact activated induced coagulation
Anaphylactic reactions [7]: risks of anaphylactic reactions
